The values that follow come from PubChem BioAssay (NCI).

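48-hour exposure; five concentrations; linearly interpolated endpoints. At the GI50, growth is halved. At the TGI there is no net growth.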

What all share (test): NCI-60 cell line screen, 48 h
Assay [1] deals with HCC-2998 colon.
The test system of assay [2] is OVCAR-5 ovarian.
The subject of assay [3] is COLO 205 colon.
Assay [4] has as its system SF-295 CNS.
The subject of assay [5] is HCT-116 colon.
The subject of assay [6] is DU-145 prostate.
Assay [7] has as its system LOX IMVI melanoma.
The subject of assay [8] is MALME-3M melanoma.

As to `Cc1cc(=O)[nH]c(N/N=C/c2ccccc2O)n1`, the GI50 was 12.3 µM in assay [1]; 7.42 µM in assay [2]; 3.81 µM in assay [3]; 3.96 µM in assay [4]; 2.46 µM in assay [5]; 15.3 µM in assay [6]. Further, the GI50 was 8.02 µM in assay [7] and 4.49 µM in assay [8]. Moreover, the TGI in assay [1], in assay [2], in assay [3], in assay [4], in assay [5] and in assay [6] was greater than 100 µM throughout. Also, the TGI in assay [7] and in assay [8] was greater than 100 µM in each case.
On to `OCCCCC#Cc1ccccc1C#Cc1cccnc1`, for which the GI50 in assay [1] was 24.8 µM; in assay [2], 27.5 µM; in assay [3], 28.4 µM; in assay [4], 22.3 µM; in assay [5], 45.9 µM; in assay [6], 47.3 µM. The GI50 in assay [7] is 29.6 µM; in assay [8], 37.8 µM. The TGI in assay [1] is 70.7 µM; in assay [2], greater than 100 µM; in assay [3] it was 94.4 µM; in assay [4], 60.4 µM; in assay [5] it was greater than 100 µM; in assay [6], greater than 100 µM. Besides, the TGI is greater than 100 µM in assay [7] and 92.2 µM in assay [8].
With `Nc1c(C(=O)c2cccc(C(O)CO)c2)cnn1-c1ccc(F)cc1` (stereo unspecified), the GI50 in assay [1], in assay [2], in assay [3], in assay [4], in assay [5] and in assay [6] was greater than 25 µM each time. Further, the GI50 in assay [7] and in assay [8] was greater than 25 µM throughout. Also, the TGI in assay [1], in assay [2], in assay [3], in assay [4], in assay [5] and in assay [6] was greater than 25 µM each time. Moreover, the TGI in assay [7] and in assay [8] was greater than 25 µM throughout.
With `C=C(C)[C@@H]1CCc2c(O)c(O)c(=O)cc(C)c2C1`, the TGI in assay [1] is greater than 100 µM; in assay [2] it was greater than 100 µM; in assay [3], 15 µM; in assay [4], greater than 100 µM; in assay [5], greater than 100 µM; in assay [6], greater than 100 µM. Also, the TGI in assay [7] was greater than 100 µM; in assay [8], 35 µM.
With `COc1ccc2nc(C)cc(Sc3nc4ccccc4s3)c2c1`, the GI50 was 0.0938 µM in assay [1]; 1.79 µM in assay [2]; 0.816 µM in assay [3]; 2.48 µM in assay [4]; 1.14 µM in assay [5]; 2.2 µM in assay [6]. Also, the GI50 was 1.19 µM in assay [7] and 0.426 µM in assay [8]. The TGI in assay [1] is 2.54 µM; in assay [2], 8.19 µM; in assay [3], 2.58 µM; in assay [4], 13.2 µM; in assay [5] it was 3.15 µM; in assay [6] it was 7.55 µM. Besides, the values for the TGI in assay [7] and in assay [8] were 3.37 µM and 11.9 µM, respectively.
With `CCN(CC)CCCNCc1cc(-c2ccccc2)nc2cc(Cl)ccc12`, the GI50 in assay [1] was 1.94 µM; in assay [2] it was 7.83 µM; in assay [3], 1.74 µM; in assay [4], 1.8 µM; in assay [5] it was 1.46 µM; in assay [6] it was 11.7 µM. Moreover, the GI50 in assay [7] was 1.87 µM; in assay [8] it was 1.63 µM. For the same compound, the TGI in assay [1] amounted to 3.89 µM; in assay [2], 21.7 µM; in assay [3], 3.27 µM; in assay [4] it was 4.37 µM; in assay [5], 4.28 µM; in assay [6] it was 24.5 µM. Also, the results for the TGI in assay [7] and in assay [8] were 4.27 µM and 3.49 µM, respectively.
On to `CN1CCN(Cc2ccc(NC(=O)c3[nH]ncc3Nc3ncnc4[nH]ccc34)cc2)CC1`, for which the GI50 is 0.367 µM in assay [1]; 0.456 µM in assay [2]; 0.193 µM in assay [3]; 0.211 µM in assay [4]; 0.214 µM in assay [5]; 0.311 µM in assay [6]. The GI50 is 0.201 µM in assay [7] and 0.472 µM in assay [8]. Besides, the TGI is 1.42 µM in assay [1]; 17.4 µM in assay [2]; 0.427 µM in assay [3]; 5.01 µM in assay [4]; 13.1 µM in assay [5]; greater than 100 µM in assay [6]. Moreover, the TGI came out at 0.759 µM in assay [7] and 0.959 µM in assay [8].
For `Cc1nn(C)c2ncnc(N/N=C/c3cccc(O)c3O)c12`, the GI50 is 0.853 µM in assay [1]; 4.06 µM in assay [2]; 1.11 µM in assay [3]; 2.73 µM in assay [4]; 0.568 µM in assay [5]; 0.558 µM in assay [6]. Besides, the GI50 in assay [7] was 0.238 µM; in assay [8], 0.52 µM. Further, the TGI in assay [1] was greater than 100 µM; in assay [2], greater than 100 µM; in assay [3], greater than 78.7 µM; in assay [4], 49.9 µM; in assay [5], greater than 100 µM; in assay [6], greater than 100 µM. In addition, the TGI in assay [7] came to 4.05 µM; in assay [8], 4.7 µM.
As for `O=C1NC(=O)C(=Cc2cn(Cc3ccccc3)c3ccccc23)C(=O)N1`, the GI50 in assay [1] was 10.9 µM; in assay [2] it was 0.332 µM; in assay [3] it was 1.13 µM; in assay [4], 1.39 µM; in assay [5] it was 11.7 µM; in assay [6], 17.5 µM. Further, the figures for the GI50 in assay [7] and in assay [8] were 14.1 µM and 18.1 µM, respectively. Moreover, the TGI in assay [1] worked out at 29.5 µM; in assay [2], 2.15 µM; in assay [3] it was 9.44 µM; in assay [4] it was 34.5 µM; in assay [5] it was 27.5 µM; in assay [6] it was 40.4 µM. For the same compound, the TGI was found to be 33.1 µM in assay [7] and 45.7 µM in assay [8].
